Source: patent US20230407243A1, “GENETIC PLATFORM TO INVESTIGATE THE FUNCTIONS OF BACTERIAL DRUG EFFLUX PUMPS” (priority 2022, published 2023)

How the values were obtained:
Type in all cases: cell-based, Escherichia coli
[1] = tested on: EKO-35 araC::mdtBC; test: MIC susceptibility profiling, efflux platform; settings: for Fold change of MICs: EKO-35 araC::mdtBC compared to EKO-35; for Minimum Inhibitory Concentration, EKO-35 araC::mdtBC: Table 13B, non-porinated, technical duplicate
In short: (§1)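 Each compound was serially diluted twofold, in duplicate, and challenged with a 1/2000 dilution of PBS-washed cells (OD600 ~1.0) in MHB II. Plates were shaken at 37 °C for 18 h and OD600 was read at room temperature, with the baseline subtracted.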

[2] = tested on: EKO-35 araC::mdtEF; test: MIC susceptibility profiling, efflux platform; settings: for Fold change of MICs: EKO-35 araC::mdtEF compared to EKO-35; for Minimum Inhibitory Concentration, EKO-35 araC::mdtEF: Table 13A, non-porinated, technical duplicate
In short: as §1

[3] = tested on: EKO-35 araC::acrD; test: MIC susceptibility profiling, efflux platform; settings: for Fold change of MICs: EKO-35 araC::acrD compared to EKO-35; for Minimum Inhibitory Concentration, EKO-35 araC::acrD: Table 13A, non-porinated, technical duplicate
In short: as §1

[4] = tested on: EKO-35 araC::acrB; test: MIC susceptibility profiling, efflux platform; settings: for Fold change of MICs: EKO-35 araC::acrB compared to EKO-35; for Minimum Inhibitory Concentration, EKO-35 araC::acrB: Table 13A, non-porinated, technical duplicate
In short: as §1

[5] = tested on: EKO-35 araC::emrAB; test: MIC susceptibility profiling, efflux platform; settings: for Fold change of MICs: EKO-35 araC::emrAB compared to EKO-35; for Minimum Inhibitory Concentration, EKO-35 araC::emrAB: Table 13B, non-porinated, technical duplicate
In short: as §1

[6] = tested on: EKO-35 araC::acrBD408A; test: MIC susceptibility profiling, efflux platform; settings: for Fold change of MICs: EKO-35 araC::acrBD408A compared to EKO-35; for Minimum Inhibitory Concentration, EKO-35 araC::acrBD408A: Table 13B, non-porinated, technical duplicate
In short: as §1

[7] = tested on: EKO-35 araC::acrEF; test: MIC susceptibility profiling, efflux platform; settings: for Fold change of MICs: EKO-35 araC::acrEF compared to EKO-35; for Minimum Inhibitory Concentration, EKO-35 araC::acrEF: Table 13A, non-porinated, technical duplicate
In short: as §1

[8] = tested on: EKO-35 araC::mexCD (MexCD from P. aeruginosa); test: MIC susceptibility profiling, efflux platform; settings: for Fold change of MICs: EKO-35 araC::mexCD compared to EKO-35; for Minimum Inhibitory Concentration, EKO-35 araC::mexCD: Table 13B, non-porinated, technical duplicate
In short: as §1

[9] = tested on: EKO-35 araC::macAB; test: MIC susceptibility profiling, efflux platform; settings: for Fold change of MICs: EKO-35 araC::macAB compared to EKO-35; for Minimum Inhibitory Concentration, EKO-35 araC::macAB: Table 13B, non-porinated, technical duplicate
In short: as §1

[10] = tested on: EKO-35 araC::emrKY; test: MIC susceptibility profiling, efflux platform; settings: for Fold change of MICs: EKO-35 araC::emrKY compared to EKO-35; for Minimum Inhibitory Concentration, EKO-35 araC::emrKY: Table 13B, non-porinated, technical duplicate
In short: as §1

[11] = tested on: EKO-35 araC::acrBD408A Pore; test: MIC susceptibility profiling, porinated efflux platform; settings: for Fold changes of MICs: EKO-35 araC::acrBD408A Pore compared to EKO-35-Pore; for Minimum inhibitory concentration: EKO-35 araC::acrBD408A Pore, technical duplicate
In short: (§2)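 E. coli strains carrying a genomically integrated constitutive fhuA ΔC/Δ4L pore were grown 18 h in LB at 37 °C, then diluted 1/2000 in MHB II from OD600 ~1.0. Compounds were tested in duplicate, 2-fold serial titration, for 18 h at 37 °C with shaking. MIC came from OD600 with the pre-incubation background subtracted.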

[12] = tested on: EKO-35 araC::acrD Pore; test: as above; settings: for Fold changes of MICs: EKO-35 araC::acrD Pore compared to EKO-35-Pore; for Minimum inhibitory concentration, EKO-35 araC::acrD Pore: Table 14A, porinated, technical duplicate
In short: as §2

[13] = tested on: EKO-35 araC::emrKY Pore; test: as above; settings: for Fold changes of MICs: EKO-35 araC::emrKY Pore compared to EKO-35-Pore; for Minimum inhibitory concentration: EKO-35 araC::emrKY Pore, technical duplicate
In short: as §2

[14] = tested on: wild-type (WT) K-12-Pore; test: microbe, parasite or virus in culture; settings: technical duplicate; for Minimum inhibitory concentration (MIC), Pore K-12: Table 10, with pore; for Minimum inhibitory concentration, K-12 (WT)-Pore: Table 14A, porinated
In short: as §2

[15] = tested on: ΔtolC-Pore; test: microbe, parasite or virus in culture; settings: technical duplicate; for Minimum inhibitory concentration (MIC), Pore ΔtolC: Table 10, with pore; for Minimum inhibitory concentration, ΔtolC-Pore: Table 14A, porinated
In short: as §2

[16] = tested on: EKO-35-Pore; test: MIC susceptibility profiling, porinated strain; settings: for Fold changes of MICs: EKO-35-Pore compared to EKO-35-Pore (reference); for Minimum inhibitory concentration (MIC), Pore EKO-35: Table 10, with pore; for Minimum inhibitory concentration (MIC), Pore EKO-35 / Minimum inhibitory concentration, EKO-35-Pore: technical duplicate; for Minimum inhibitory concentration, EKO-35-Pore: Table 14A, porinated
In short: as §2

[17] = tested on: wild-type E. coli K-12 str. BW25113; test: microbe, parasite or virus in culture; settings: technical duplicate; for Minimum inhibitory concentration (MIC), K-12: Table 10, without pore; for Minimum Inhibitory Concentration, K-12: Table 13A, non-porinated
In short: as §1

[18] = tested on: E. coli EKO-35; test: microbe, parasite or virus in culture; settings: for Fold change of MICs: EKO-35 compared to EKO-35 (reference); for Minimum inhibitory concentration (MIC), EKO-35: Table 10, without pore; for Minimum inhibitory concentration (MIC), EKO-35 / Minimum Inhibitory Concentration, EKO-35: technical duplicate; for Minimum Inhibitory Concentration, EKO-35: Table 13A, non-porinated
In short: as §1

[19] = tested on: E. coli ΔtolC; test: microbe, parasite or virus in culture; settings: technical duplicate; for Minimum inhibitory concentration (MIC), ΔtolC: Table 10, without pore; for Minimum Inhibitory Concentration, ΔtolC: Table 13A, non-porinated
In short: as §1

For benzalkonium chloride, the “Fold change of MICs” value [1] was 1 fold, the “Minimum Inhibitory Concentration, EKO-35 araC::mdtBC” value [1] was 0.391 µg/mL and the “Fold change of MICs” value [2] was 4 fold. For the same substance, the “Minimum Inhibitory Concentration, EKO-35 araC::mdtEF” value [2] was 1.563 µg/mL, the “Fold change of MICs” value [3] was 1 fold and the “Minimum Inhibitory Concentration, EKO-35 araC::acrD” value [3] was 0.391 µg/mL. For the same substance, the “Fold change of MICs” value [4] was 32 fold, the “Minimum Inhibitory Concentration, EKO-35 araC::acrB” value [4] was 12.5 µg/mL and the “Fold change of MICs” value [5] was 1 fold. For the same substance, the “Minimum Inhibitory Concentration, EKO-35 araC::emrAB” value [5] was 0.391 µg/mL, the “Fold change of MICs” value [6] was 1 fold and the “Minimum Inhibitory Concentration, EKO-35 araC::acrBD408A” value [6] was 0.391 µg/mL. The “Fold change of MICs” value [7] was 4 fold, the “Minimum Inhibitory Concentration, EKO-35 araC::acrEF” value [7] was 1.563 µg/mL and the “Fold change of MICs” value [8] was 2 fold. For the same substance, the “Minimum Inhibitory Concentration, EKO-35 araC::mexCD” value [8] was 0.781 µg/mL, the “Fold change of MICs” value [9] was 1 fold and the “Minimum Inhibitory Concentration, EKO-35 araC::macAB” value [9] was 0.391 µg/mL. For the same substance, the “Fold change of MICs” value [10] was 1 fold, the “Minimum Inhibitory Concentration, EKO-35 araC::emrKY” value [10] was 0.391 µg/mL and the “Fold changes of MICs” value [11] was 1 fold. The Minimum inhibitory concentration [11] was 0.391 µg/mL, the “Fold changes of MICs” value [12] was 1 fold and the “Minimum inhibitory concentration, EKO-35 araC::acrD Pore” value [12] was 0.391 µg/mL. The “Fold changes of MICs” value [13] was 1 fold, the Minimum inhibitory concentration [13] was 0.195 µg/mL and the “Minimum inhibitory concentration (MIC), Pore K-12” value [14] was 6.25 µg/mL. For the same substance, the “Minimum inhibitory concentration, K-12 (WT)-Pore” value [14] was 6.25 µg/mL, the “Minimum inhibitory concentration (MIC), Pore ΔtolC” value [15] was 0.391 µg/mL and the “Minimum inhibitory concentration, ΔtolC-Pore” value [15] was 0.391 µg/mL. For the same substance, the “Fold changes of MICs” value [16] was 1 fold, the “Minimum inhibitory concentration (MIC), Pore EKO-35” value [16] was 0.391 µg/mL and the “Minimum inhibitory concentration, EKO-35-Pore” value [16] was 0.391 µg/mL. The “Minimum inhibitory concentration (MIC), K-12” value [17] was 12.5 µg/mL, the “Minimum Inhibitory Concentration, K-12” value [17] was 12.5 µg/mL and the “Fold change of MICs” value [18] was 1 fold. For the same substance, the “Minimum inhibitory concentration (MIC), EKO-35” value [18] was 0.391 µg/mL, the “Minimum Inhibitory Concentration, EKO-35” value [18] was 0.391 µg/mL and the “Minimum inhibitory concentration (MIC), ΔtolC” value [19] was 0.391 µg/mL. For the same substance, the “Minimum Inhibitory Concentration, ΔtolC” value [19] was 0.391 µg/mL.

For deoxycholate, the “Fold change of MICs” value [1] was 4 fold, the “efflux pump-mediated resistance vs EKO-35” value ([1]; MdtBC) was “conferred resistance” and the “Minimum Inhibitory Concentration, EKO-35 araC::mdtBC” value [1] was 1500 µg/mL. The “Fold change of MICs” value [2] was 4 fold, the “Minimum Inhibitory Concentration, EKO-35 araC::mdtEF” value [2] was 1500 µg/mL and the “efflux pump-mediated resistance vs EKO-35” value ([3]; AcrD) was “confirmed”. For the same substance, the “Fold change of MICs” value [3] was 4 fold, the “Minimum Inhibitory Concentration, EKO-35 araC::acrD” value [3] was 1500 µg/mL and the “Fold change of MICs” value [4] was 4 fold. For the same substance, the “Minimum Inhibitory Concentration, EKO-35 araC::acrB” value [4] was 1500 µg/mL, the “Fold change of MICs” value [5] was 4 fold and the “Minimum Inhibitory Concentration, EKO-35 araC::emrAB” value [5] was 1500 µg/mL. The “Fold change of MICs” value [6] was 1 fold, the “Minimum Inhibitory Concentration, EKO-35 araC::acrBD408A” value [6] was 375 µg/mL and the “Fold change of MICs” value [7] was 4 fold. For the same substance, the “Minimum Inhibitory Concentration, EKO-35 araC::acrEF” value [7] was 1500 µg/mL, the “Fold change of MICs” value [8] was 4 fold and the “Minimum Inhibitory Concentration, EKO-35 araC::mexCD” value [8] was 1500 µg/mL. The “Fold change of MICs” value [9] was 1 fold, the “Minimum Inhibitory Concentration, EKO-35 araC::macAB” value [9] was 187.5 µg/mL and the “Fold change of MICs” value [10] was 1 fold. The “efflux pump-mediated resistance vs EKO-35” value ([10]; EmrKY) was “could not substantiate”, the “Minimum Inhibitory Concentration, EKO-35 araC::emrKY” value [10] was 375 µg/mL and the “Fold changes of MICs” value [11] was 1 fold. For the same substance, the Minimum inhibitory concentration [11] was 93.75 µg/mL, the “Fold changes of MICs” value [12] was 8 fold and the “Minimum inhibitory concentration, EKO-35 araC::acrD Pore” value [12] was 1500 µg/mL. For the same substance, the “Fold changes of MICs” value [13] was 1 fold, the Minimum inhibitory concentration [13] was 187.5 µg/mL and the “Minimum inhibitory concentration (MIC), Pore K-12” value [14] was 1500 µg/mL. For the same substance, the “Minimum inhibitory concentration, K-12 (WT)-Pore” value [14] was 1500 µg/mL, the “Minimum inhibitory concentration (MIC), Pore ΔtolC” value [15] was 46.875 µg/mL and the “Minimum inhibitory concentration, ΔtolC-Pore” value [15] was 46.875 µg/mL. The “Fold changes of MICs” value [16] was 1 fold, the “Minimum inhibitory concentration (MIC), Pore EKO-35” value [16] was 187.5 µg/mL and the “Minimum inhibitory concentration, EKO-35-Pore” value [16] was 187.5 µg/mL. The “Minimum inhibitory concentration (MIC), K-12” value [17] was 1500 µg/mL, the “Minimum Inhibitory Concentration, K-12” value [17] was 1500 µg/mL and the “Fold change of MICs” value [18] was 1 fold. The “Minimum inhibitory concentration (MIC), EKO-35” value [18] was 375 µg/mL, the “Minimum Inhibitory Concentration, EKO-35” value [18] was 375 µg/mL and the “Minimum inhibitory concentration (MIC), ΔtolC” value [19] was 187.5 µg/mL. For the same substance, the “Minimum Inhibitory Concentration, ΔtolC” value [19] was 187.5 µg/mL.
